Where two headings read alike, the source gives them in different places. No end group written: not given here.
Assays:
Experiment in all cases: biochemical
Assay type in all cases: binding
HLA-DR DRB1*0301 (DR3) = HLA-DR DRB1*0301 (DR3) (Homo sapiens, UniProt P01903+P01911, A100K/A102G/A103R/A169T/F55Y/I96L/K41T/L162R/M171V/P40S/Q125H/Q178H/Q39Y/R42S/S66N/T106N/T262R/W38E/Y61H)
HLA-DR DRB1*1501 (DR15) = HLA-DR DRB1*1501 (DR15) (Homo sapiens, UniProt P01903+P01911); conditions: DRBI *1501
HLA-DR DRB4*0101 (DR53) = HLA-DR DRB4*0101 (DR53) (Homo sapiens, UniProt P01903+P13762, G164S); conditions: DRB4 *0101
HLA-DR DRB1*0405 (DR4) = HLA-DR DRB1*0405 (DR4) (Homo sapiens, UniProt P01903+P01911, A100R/A169T/D86S/F76Y/I96L/K127E/L162R/M171V/N62H/P40V/Q125Y/R42H/S133A/S149N/S66Y/V115G/V209L/W38E)
HLA-DR DRB1*0701 (DR7) = HLA-DR DRB1*0701 (DR7) (Homo sapiens, UniProt P01903+P01911, A100R/A102G/A103Q/D57E/D86V/E43K/F76Y/K127E/L162R/M171V/P40G/Q125H/Q99D/R33Q/R42Y/R54Q/S133A/S66F/T210M/V115G/Y107V/Y59L/Y89S)
HLA-DR DRB1*0101 (DR1) = HLA-DR DRB1*0101 (DR1) (Homo sapiens, UniProt P01903+P01911, A100R/D57E/F55L/F60I/F76Y/I96L/L162R/M171V/P40L/Q125E/R42F/V115G/Y59C)
HLA-DR DRB1*0401 (DR4) = HLA-DR DRB1*0401 (DR4) (Homo sapiens, UniProt P01903+P01911, A100K/A169T/F76Y/I96L/K127E/L162R/M171V/N62H/P40V/Q125Y/R42H/S133A/S149N/S66Y/V115G/V209L/W38E)
HLA-DR DRB1*1302 (DR13) = HLA-DR DRB1*1302 (DR13) (Homo sapiens, UniProt P01903+P01911, A100E/A169T/K41T/L162R/M171V/P40S/Q125H/Q178H/Q39Y/Q99D/R42S/S66N/T262R/V115G/W38E/Y61H); conditions: DRBI *1302
HLA-DR DRB1*1101 (DR11) = HLA-DR DRB1*1101 (DR11) (Homo sapiens, UniProt P01903+P01911, A100R/A169T/A87E/I96F/K41T/L162R/M171V/P40S/Q125H/Q178H/Q39Y/Q99D/R42S/S66Y/T262R/V115G/W38E); conditions: DRB1 *1101
HLA-DR DRB5*0101 (DR51) = HLA-DR DRB5*0101 (DR51) (Homo sapiens, UniProt P01903+Q30154); conditions: DRB5 *0101
HLA-DR DRB1*0901 (DR9) = HLA-DR DRB1*0901 (DR9) (Homo sapiens, UniProt P01903+P01911, A100R/A103E/D57H/D86V/F55Y/F60I/F76Y/I96F/K127E/L162R/M171V/P40D/Q125H/Q99R/R33Q/R42F/S133A/S66N/T210M/V115G/W38K/Y107V/Y59G/Y89S); conditions: read-out: DRB1 *0901
HLA-A*3301 = HLA-A*3301 (Homo sapiens, UniProt P04439, A270S/D185E/E176V/E277Q/E87N/F33T/G231S/H175R/I121M/I218V/I322F/K168Q/K210R/L300P/L318F/M331R/P217A/Q86R/Q94H/R138Q/T323A/T345S/T97I/V358M/Y195H)
HLA-A*1101 = HLA-A*1101 (Homo sapiens, UniProt P04439, A114D/D185E/E176A/F33Y/L180Q/S129P/T187R)
HLA-A*3101 = HLA-A*3101 (Homo sapiens, UniProt P04439, A270S/D185E/E176V/E277Q/F33T/G231S/G80R/H175R/I121M/I218V/I322F/K168Q/L300P/L318F/M331R/P217A/Q94H/R138Q/T323A/T345S/T97I/V358M)
HLA-A*6801 = HLA-A*6801 (Homo sapiens, UniProt P04439, A269V/D185E/E176V/E277Q/E87N/F33Y/G231S/I121M/I166T/I218V/L180W/L300P/L318F/N151K/P208A/P217A/Q86R/R169H/T345S)
HLA-A*0301 = HLA-A*0301 (Homo sapiens, UniProt P04439)

Sequence of HLA-A*1101 (P04439 25-365 limits assumed, stated change not applied): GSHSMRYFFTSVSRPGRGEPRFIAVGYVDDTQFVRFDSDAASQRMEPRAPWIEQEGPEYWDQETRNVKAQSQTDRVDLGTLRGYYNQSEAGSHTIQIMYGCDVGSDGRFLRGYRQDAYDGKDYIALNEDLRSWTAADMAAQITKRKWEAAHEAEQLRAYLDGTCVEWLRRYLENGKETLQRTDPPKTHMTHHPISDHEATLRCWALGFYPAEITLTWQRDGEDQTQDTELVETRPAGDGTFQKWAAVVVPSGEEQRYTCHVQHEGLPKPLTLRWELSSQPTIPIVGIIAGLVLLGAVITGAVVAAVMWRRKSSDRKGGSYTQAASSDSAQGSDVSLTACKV
Sequence of HLA-DR DRB1*1101 (DR11) (P01903 26-254 limits assumed, other chains not shown): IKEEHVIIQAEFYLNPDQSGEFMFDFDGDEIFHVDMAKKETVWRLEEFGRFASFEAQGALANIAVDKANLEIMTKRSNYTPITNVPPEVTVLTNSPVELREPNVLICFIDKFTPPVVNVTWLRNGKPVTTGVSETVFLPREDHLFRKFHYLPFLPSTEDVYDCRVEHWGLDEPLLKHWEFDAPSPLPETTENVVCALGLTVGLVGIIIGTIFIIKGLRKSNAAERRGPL
Sequence of HLA-DR DRB1*1302 (DR13) (P01903 26-254 limits assumed, other chains not shown): as above
Sequence of HLA-DR DRB1*0301 (DR3) (P01903 26-254 limits assumed, other chains not shown): as above

Row | Compound | IC50 (HLA-DR DRB1*0301 (DR3)) | IC50 (HLA-DR DRB1*1501 (DR15)) | IC50 (HLA-DR DRB4*0101 (DR53)) | IC50 (HLA-DR DRB1*0405 (DR4); DRB1 *0405) | IC50 (HLA-DR DRB1*0701 (DR7); DRB1 *0701) | IC50 (HLA-DR DRB1*0101 (DR1); DRB1 *0101) | IC50 (HLA-DR DRB1*0401 (DR4); DRB1 *0401) | IC50 (HLA-DR DRB1*1302 (DR13)) | IC50 (HLA-DR DRB1*1101 (DR11)) | IC50 (HLA-DR DRB5*0101 (DR51)) | further results
1 | LRAFQQLFLNTLSFV | 648 nM | 20 nM | 2.2 nM | 8.3 nM | 75 nM | 1.5 nM | 7.4 nM | 1.01 nM |  |  | 
2 | HQAISPRTLNGPGPGSPAIF | 728000 nM | 5570 nM | 232 nM | 3110 nM | 5080 nM | 1550 nM |  | 638 nM | 9870 nM | 32900 nM | 
3 | CC(C)C[C@H](NC(=O)[C@H](CCC(N)=O)NC(=O)[C@H](CCC(N)=O)NC(=O)[C@H](CC(C)C)NC(=O)[C@@H](NC(=O)[C@H](CCCNC(=N)N)NC(=O)[C@@H](N)CC(C)C)[C@@H](C)O)C(=O)N[C@@H](Cc1ccccc1)C(=O)N[C@@H](CC(C)C)C(=O)N[C@@H](CO)C(=O)N[C@H](C(=O)N[C@@H](CC(C)C)C(=O)N[C@@H](CO)C(=O)N[C@@H](Cc1ccccc1)C(=O)N[C@H](C(=O)O)C(C)C)[C@@H](C)O | 801 nM | 29 nM | 3.1 nM | 9 nM | 60 nM | 8.3 nM | 18 nM | 55 nM | 208 nM | 1990 nM | 
4 | IQQLLMGTVNIYCPT |  |  |  |  |  |  |  |  |  |  | IC50 (HLA-DR DRB1*0301 (DR3); read-out: DRB1 *0301): 93700 nM; IC50 (HLA-DR DRB1*0405 (DR4); read-out: DRB1 *0405): 624 nM; IC50 (HLA-DR DRB1*0101 (DR1); read-out: DRB1 *0101): 71 nM
5 | HYCYSLYGTTLEQQY |  | 4850 nM |  | 76 nM | 9860 nM | 546 nM |  | > 13700 nM |  | > 10700 nM | 
6 | KKPLNEILIRCIICQ |  |  |  |  |  |  |  |  |  |  | IC50 (HLA-DR DRB1*0405 (DR4); read-out: DRB1 *0405): 347 nM; IC50 (HLA-DR DRB1*0701 (DR7); read-out: DRB1 *0701): 7970 nM; IC50 (HLA-DR DRB1*0401 (DR4); read-out: DRB1 *0401): 315 nM
7 | YLAMPFATPMEAELARRSLA | 46600 nM | 865 nM | 1960 nM | 405 nM |  | 46 nM | 266 nM | 2810 nM |  | 641 nM | 
8 | YDFVFADLRIVYRNG |  |  |  |  |  |  |  |  |  |  | IC50 (HLA-DR DRB1*0301 (DR3); read-out: DRB1 *0301): 13 nM; IC50 (HLA-DR DRB1*0405 (DR4); read-out: DRB1 *0405): 829 nM; IC50 (HLA-DR DRB1*0701 (DR7); read-out: DRB1 *0701): 21400 nM; IC50 (HLA-DR DRB1*0401 (DR4); read-out: DRB1 *0401): 1910 nM
9 | CC[C@H](C)[C@H](NC(=O)[C@H](CO)NC(=O)[C@H](CC(=O)O)NC(=O)[C@H](CCCNC(=N)N)NC(=O)[C@H](Cc1ccc(O)cc1)NC(=O)[C@@H](NC(=O)[C@@H](NC(=O)[C@H](Cc1ccccc1)NC(=O)[C@@H](N)CC(C)C)C(C)C)C(C)C)C(=O)N1CCC[C@H]1C(=O)N[C@@H](Cc1c[nH]cn1)C(=O)N[C@@H](C)C(=O)N[C@@H](C)C(=O)N[C@@H](CS)C(=O)N[C@@H](Cc1c[nH]cn1)C(=O)O | 62 nM | 437 nM | 3580 nM | 690 nM | 2000 nM | 131 nM | 3 nM | 697 nM | 1580 nM | 7850 nM | 
10 | YKFLFTDLRIVYRDN | 8.8 nM | 2910 nM | 1340 nM | 91 nM | 1520 nM | 109 nM |  | 77 nM | 10100 nM | 800 nM | 
11 | EFAFKDLFVVYRDS |  |  |  |  |  |  |  |  |  |  | IC50 (HLA-DR DRB1*0405 (DR4); read-out: DRB1 *0405): 33 nM; IC50 (HLA-DR DRB1*0701 (DR7); read-out: DRB1 *0701): 3690 nM; IC50 (HLA-DR DRB1*0401 (DR4); read-out: DRB1 *0401): 2220 nM
12 | LRIVYRDGNPFAVCK |  |  | 1570 nM | 557 nM | 8990 nM |  | 16 nM | 123 nM | 109 nM | 6820 nM | 
13 | VVQLDIQSTKEDLRV |  |  |  |  |  |  |  |  |  |  | IC50 (HLA-DR DRB1*0901 (DR9)): 13900 nM; IC50 (HLA-DR DRB1*0405 (DR4); read-out: DRB1 *0405): 46 nM; IC50 (HLA-DR DRB1*0701 (DR7); read-out: DRB1 *0701): 3760 nM; IC50 (HLA-DR DRB1*0401 (DR4); read-out: DRB1 *0401): 11100 nM
14 | CC[C@H](C)[C@H](NC(=O)[C@@H](N)Cc1c[nH]c2ccccc12)C(=O)N[C@H](C(=O)N[C@@H](CCC(N)=O)C(=O)N[C@@H](CS)C(=O)N[C@@H](Cc1ccccc1)C(=O)N[C@@H](CC(C)C)C(=O)N1CCC[C@H]1C(=O)N[C@H](C(=O)N[C@@H](Cc1ccccc1)C(=O)N[C@@H](CC(C)C)C(=O)N[C@@H](C)C(=O)N[C@@H](CCC(N)=O)C(=O)N1CCC[C@H]1C(=O)N1CCC[C@H]1C(=O)N[C@@H](CO)C(=O)NCC(=O)N[C@@H](CCC(N)=O)C(=O)N[C@@H](CCCNC(=N)N)C(=O)N[C@@H](CCCNC(=N)N)C(=O)O)C(C)C)[C@@H](C)O | 25500 nM |  |  | 216 nM | 74200 nM | 679 nM | 88 nM |  |  |  | 
15 | RQDILDLWVYHTQGY | 98300 nM | 723 nM | 1330 nM | 1140 nM | 1630 nM | 2390 nM | 1200 nM | 6780 nM | > 51300 nM | 16200 nM | 
16 | VTVYGPGPGWK |  |  |  |  |  |  |  |  |  |  | IC50 (HLA-A*3301): > 103000 nM; IC50 (HLA-A*1101): 18 nM; IC50 (HLA-A*3101): > 9000 nM; IC50 (HLA-A*6801): 206 nM; IC50 (HLA-A*0301): 1150 nM
17 | RVHFASPLH |  |  |  |  |  |  |  |  |  |  | IC50 (HLA-A*3301): > 123000 nM; IC50 (HLA-A*1101): 60 nM; IC50 (HLA-A*3101): 572 nM; IC50 (HLA-A*6801): 7620 nM; IC50 (HLA-A*0301): 12 nM
18 | GVDGLIYSK |  |  |  |  |  |  |  |  |  |  | IC50 (HLA-A*3301): > 29700 nM; IC50 (HLA-A*1101): 47 nM; IC50 (HLA-A*3101): > 17700 nM; IC50 (HLA-A*6801): 5100 nM; IC50 (HLA-A*0301): 10100 nM

Source: patent US20060079453A1, “Hla binding peptides and their uses” (priority 2002, published 2006)
